For the experiment, the system named is HCV replicon. In words: HCV Replicon Assay (luciferase, 5-2 Luc replicon cells). The class given is cell-based. The note with it: 5-2 Luc replicon cells (Huh7), 24-48 hours with compound, luciferase counts. The method, boiled down:
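Huh7-derived 5-2 Luc replicon cells were seeded at 5000-7500 cells/well, grown 24 h at 37° C. and 5% CO2, then exposed to serial compound concentrations for 24-48 hours.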
For `Cc1cc2cc(NC(=O)c3nc4ccccc4s3)ccc2n1C(=O)c1c(Cl)cccc1Cl` [Compound 245], the “Activity (concentration of inhibitory activity)” value is recorded as “b (“b” indicates activity is at a concentration greater than 10 micromolar)”. On to `CC(=O)N1CCC(C(=O)Nc2ccc3c(c2)cc(C)n3C(=O)c2c(Cl)cccc2Cl)CC1` [Compound 246], for which the “Activity (concentration of inhibitory activity)” value was “b (“b” indicates activity is at a concentration greater than 10 micromolar)”. Take `O=C(Nc1ccc2c(ccn2C(=O)c2c(Cl)cccc2Cl)c1)C1CCCC1` [Compound 247]: the “Activity (concentration of inhibitory activity)” value was “b (“b” indicates activity is at a concentration greater than 10 micromolar)”.

Consider `O=C(Nc1ccc2c(ccn2C(=O)c2c(Cl)cccc2Cl)c1)C(Cl)Cl` [Compound 248], for which the “Activity (concentration of inhibitory activity)” value is “b (“b” indicates activity is at a concentration greater than 10 micromolar)”. For `O=C(Nc1ccc2c(ccn2C(=O)c2c(Cl)cccc2Cl)c1)c1cccc(F)c1` [Compound 249], the “Activity (concentration of inhibitory activity)” value was “b (“b” indicates activity is at a concentration greater than 10 micromolar)”. Consider `O=C(Nc1ccc2c(ccn2C(=O)c2c(Cl)cccc2Cl)c1)c1cccc(C(F)(F)F)c1` [Compound 250], for which the “Activity (concentration of inhibitory activity)” value was “b (“b” indicates activity is at a concentration greater than 10 micromolar)”.

For the compound `O=C(Nc1ccc2c(ccn2C(=O)c2c(Cl)cccc2Cl)c1)c1cccs1` [Compound 251], the “Activity (concentration of inhibitory activity)” value is recorded as “b (“b” indicates activity is at a concentration greater than 10 micromolar)”.

`O=C(Nc1ccc2c(ccn2C(=O)c2c(Cl)cccc2Cl)c1)C1CCCCC1` [Compound 252]: the “Activity (concentration of inhibitory activity)” value is listed as “b (“b” indicates activity is at a concentration greater than 10 micromolar)”.

Take `O=C(Nc1ccc2c(ccn2C(=O)c2c(Cl)cccc2Cl)c1)C1CC1` [Compound 254]: the “Activity (concentration of inhibitory activity)” value is listed as “b (“b” indicates activity is at a concentration greater than 10 micromolar)”. Next, `O=C(Cc1cccnc1)Nc1ccc2c(ccn2C(=O)c2c(Cl)cccc2Cl)c1` [Compound 255]: “b (“b” indicates activity is at a concentration greater than 10 micromolar)”; `Cc1cc2cc(NC(=O)c3sccc3Cl)ccc2n1C(=O)c1c(Cl)cccc1Cl` [Compound 256]: “b (“b” indicates activity is at a concentration greater than 10 micromolar)”. In the case of `Cc1cc2cc(NC(=O)c3cccnc3)ccc2n1C(=O)c1c(F)cccc1C(F)(F)F` [Compound 257], the “Activity (concentration of inhibitory activity)” value is “b (“b” indicates activity is at a concentration greater than 10 micromolar)”. On to `O=C(Nc1ccc2c(ccn2C(=O)c2c(Cl)cccc2Cl)c1)C1CCC1` [Compound 258], for which the “Activity (concentration of inhibitory activity)” value is recorded as “b (“b” indicates activity is at a concentration greater than 10 micromolar)”. On to `Cc1cc2cc(NC(=O)C3CC3)ccc2n1C(=O)c1ccccc1` [Compound 259], for which the “Activity (concentration of inhibitory activity)” value is listed as “b (“b” indicates activity is at a concentration greater than 10 micromolar)”.

Turning to `Cc1cc2cc(NC(=O)C3CCCCC3)ccc2n1C(=O)c1ccccc1` [Compound 260], the “Activity (concentration of inhibitory activity)” value was “b (“b” indicates activity is at a concentration greater than 10 micromolar)”. On to `Cc1cccc(F)c1C(=O)n1c(C)cc2cc(NC(=O)C3CCCCC3)ccc21` [Compound 262], for which the “Activity (concentration of inhibitory activity)” value was “b (“b” indicates activity is at a concentration greater than 10 micromolar)”. Next, `Cc1cc2cc(NC(=O)CBr)ccc2n1C(=O)c1c(Cl)cccc1Cl` [Compound 263]: “b (“b” indicates activity is at a concentration greater than 10 micromolar)”; `Cc1cc2cc(NC(=O)C3CCCCC3)ccc2n1C(=O)c1c(Cl)cncc1Cl` [Compound 265]: “b (“b” indicates activity is at a concentration greater than 10 micromolar)”; `Cc1cc2cc(NC(=O)C3CCNCC3)ccc2n1C(=O)c1c(Cl)cccc1Cl` [Compound 266]: “a (“a” indicates inhibitory activity at a concentration of less than 10 micromolar)”.

Take `Cc1cc2cc(NC(=O)C3CCCCC3)ccc2n1C(=O)c1c(Cl)cccc1Cl` [Compound 267]: the “Activity (concentration of inhibitory activity)” value was “b (“b” indicates activity is at a concentration greater than 10 micromolar)”. To `Cc1cc2cc(NC(=O)[C@H]3CCCN3)ccc2n1C(=O)c1c(Cl)cccc1Cl` [Compound 268] belongs “b (“b” indicates activity is at a concentration greater than 10 micromolar)”; to `Cc1cc2cc(NC(=O)C3CCN(C(=O)OC(C)(C)C)CC3)ccc2n1C(=O)c1c(F)cccc1Cl` [Compound 269], “b (“b” indicates activity is at a concentration greater than 10 micromolar)”. Consider `Cc1cccc(C)c1C(=O)n1c(C)cc2cc(NC(=O)[C@H]3CCCN3)ccc21` [Compound 270], for which the “Activity (concentration of inhibitory activity)” value is reported as “b (“b” indicates activity is at a concentration greater than 10 micromolar)”. On to `Cc1cc2cc(NC(=O)[C@H]3CCCN3)ccc2n1C(=O)c1c(F)cccc1Cl` [Compound 271], for which the “Activity (concentration of inhibitory activity)” value is “b (“b” indicates activity is at a concentration greater than 10 micromolar)”.

For the compound `Cc1cc2cc(NC(=O)C3CCCNC3)ccc2n1C(=O)c1c(F)cccc1Cl` (stereo not drawn) [Compound 272], the “Activity (concentration of inhibitory activity)” value is listed as “b (“b” indicates activity is at a concentration greater than 10 micromolar)”. Regarding `Cc1cc2cc(NC(=O)C3CCNCC3)ccc2n1C(=O)c1c(F)cccc1Cl` [Compound 273], the “Activity (concentration of inhibitory activity)” value is given as “b (“b” indicates activity is at a concentration greater than 10 micromolar)”. For the compound `CCc1ccc(C(=O)n2c(C)cc3cc(NC(=O)C4CCCC4)ccc32)cc1` [Compound 274], the “Activity (concentration of inhibitory activity)” value is given as “b (“b” indicates activity is at a concentration greater than 10 micromolar)”. Next, `Cc1cc2cc(NC(=O)C3CCCC3)ccc2n1C(=O)c1cc(Cl)cc(Cl)c1` [Compound 275]: “b (“b” indicates activity is at a concentration greater than 10 micromolar)”.

For the compound `Cc1cc2cc(NC(=O)C3CCCC3)ccc2n1C(=O)c1ccc(Cl)cc1` [Compound 276], the “Activity (concentration of inhibitory activity)” value is “b (“b” indicates activity is at a concentration greater than 10 micromolar)”. Regarding `Cc1ccccc1C(=O)n1c(C)cc2cc(NC(=O)C3CCCC3)ccc21` [Compound 277], the “Activity (concentration of inhibitory activity)” value is given as “b (“b” indicates activity is at a concentration greater than 10 micromolar)”. Regarding `CC(C)(C)c1cc2cc(NC(=O)c3ccc(C(F)(F)F)cc3)ccc2[nH]1` [Compound 278], the “Activity (concentration of inhibitory activity)” value is “a (“a” indicates inhibitory activity at a concentration of less than 10 micromolar)”. For the compound `CC(C)(C)c1cc2cc(NC(=O)c3cc(Cl)nc(Cl)c3)ccc2[nH]1` [Compound 279], the “Activity (concentration of inhibitory activity)” value is given as “a (“a” indicates inhibitory activity at a concentration of less than 10 micromolar)”. Regarding `COc1cc(C(=O)Nc2ccc3[nH]c(C(C)(C)C)cc3c2)cc(OC)c1OC` [Compound 280], the “Activity (concentration of inhibitory activity)” value is given as “b (“b” indicates activity is at a concentration greater than 10 micromolar)”. `CCC(C)(C)c1cc2cc(NC(=O)C(C)(C)C)ccc2[nH]1` [Compound 282]: the “Activity (concentration of inhibitory activity)” value is given as “b (“b” indicates activity is at a concentration greater than 10 micromolar)”. As to `CCC(C)(C)c1cc2cc(NC(=O)/C=C/c3ccccc3)ccc2[nH]1` [Compound 283], the “Activity (concentration of inhibitory activity)” value is “b (“b” indicates activity is at a concentration greater than 10 micromolar)”. For `CCC(C)(C)c1cc2cc(NC(=O)c3ccc(C(C)(C)C)cc3)ccc2[nH]1` [Compound 284], the “Activity (concentration of inhibitory activity)” value is “b (“b” indicates activity is at a concentration greater than 10 micromolar)”.

`CCC(C)(C)c1cc2cc(NC(=O)c3c(F)cccc3F)ccc2[nH]1` [Compound 285]: the “Activity (concentration of inhibitory activity)” value is “a (“a” indicates inhibitory activity at a concentration of less than 10 micromolar)”.

On to `CCC(C)(C)c1cc2cc(NC(=O)c3cccc(C(F)(F)F)c3)ccc2[nH]1` [Compound 286], for which the “Activity (concentration of inhibitory activity)” value was “a (“a” indicates inhibitory activity at a concentration of less than 10 micromolar)”. Regarding `CCC(C)(C)c1cc2cc(NC(=O)C(c3ccccc3)c3ccccc3)ccc2[nH]1` [Compound 287], the “Activity (concentration of inhibitory activity)” value is “b (“b” indicates activity is at a concentration greater than 10 micromolar)”. Consider `CCC(C)(C)c1cc2cc(NC(=O)c3cccs3)ccc2[nH]1` [Compound 288], for which the “Activity (concentration of inhibitory activity)” value is given as “b (“b” indicates activity is at a concentration greater than 10 micromolar)”. Turning to `CCC(C)(C)c1cc2cc(NC(=O)c3cc(Cl)nc(Cl)c3)ccc2[nH]1` [Compound 289], the “Activity (concentration of inhibitory activity)” value is “a (“a” indicates inhibitory activity at a concentration of less than 10 micromolar)”.

`CC(C)(C)c1cc2cc(NC(=O)C3CC3)ccc2[nH]1` [Compound 290]: the “Activity (concentration of inhibitory activity)” value was “a (“a” indicates inhibitory activity at a concentration of less than 10 micromolar)”.

The values are drawn from US20050215614A1, “Substituted indoles and their use as hcv inhibitors” (Rigel Pharmaceuticals, Inc., priority 2003, published 2005).
